# Test results: PubChem BioAssay AID248 (DTP/NCI, 2004)
# Values joined by “and” are separate entries in the source; they are usually repeats but may differ in a detail not shown here. Equal values may be shown once. Toxic doses and inconclusive results are not listed.
# Tested on: L1210 leukemia ip in BDF1 mice, survival T/C
# Assay: NCI In Vivo Anticancer Drug Screen. Data for tumor model L1210 Leukemia (intraperitoneal) in B6D2F1 (BDF1) mice
# Conditions: endpoint: mean survival time, higher = longer survival
# Summary of the method: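 Mice bearing the transplanted tumor received compound or vehicle. Survival of the treated group was divided by that of the vehicle-treated control group to give the ratio.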
# [1] = dose: 100.0 mg/kg/injection, schedule: Q01DX009 (ip), vehicle: saline with Tween-80
# [2] = dose: 100.0 mg/kg/injection, schedule: Q04DX003 (ip), vehicle: saline with Tween-80
# [3] = dose: 200.0 mg/kg/injection, schedule: Q01DX009 (ip), vehicle: saline with Tween-80
# [4] = dose: 200.0 mg/kg/injection, schedule: Q04DX003 (ip), vehicle: saline with Tween-80
# [5] = dose: 400.0 mg/kg/injection, schedule: Q01DX009 (ip), vehicle: saline with Tween-80
# [6] = dose: 400.0 mg/kg/injection, schedule: Q04DX003 (ip), vehicle: saline with Tween-80
smiles,measurement,setting,value
CCC(N)c1ccc2c3c(cccc13)CC2 (stereo unspecified),T/C,[1],88 % of control
same,T/C,[2],93 % of control
same,T/C,[3],90 % of control
same,T/C,[4],90 % of control
same,T/C,[5],93 % of control
same,T/C,[6],90 % of control
c1ccc(Cn2ccnn2)cc1,T/C,"dose: 50.0 mg/kg/injection, schedule: Q01DX009 (ip), vehicle: Klucel (hydroxypropylcellulose) (HPC)",96 % of control
same,T/C,"dose: 100.0 mg/kg/injection, schedule: Q01DX009 (ip), vehicle: Klucel (hydroxypropylcellulose) (HPC)",92 % of control
same,T/C,"dose: 200.0 mg/kg/injection, schedule: Q01DX009 (ip), vehicle: Klucel (hydroxypropylcellulose) (HPC)",115 % of control
CCCCCCCCCCCCCCCCCCSCCOCCSCCCCCCCCCCCCCCCCCC,T/C,"dose: 100.0 mg/kg/injection, schedule: Q01DX001 (ip), vehicle: Klucel (hydroxypropylcellulose) (HPC)",87 % of control
same,T/C,"dose: 400.0 mg/kg/injection, schedule: Q01DX001 (ip), vehicle: Klucel (hydroxypropylcellulose) (HPC)",88 % of control
CC1(C)C2CCC1(C)C(OC(=O)C1OC(O)C(O)C(O)C1O)C2 (stereo unspecified),T/C,[2],102 % of control
same,T/C,[4],104 % of control
same,T/C,[6],102 % of control
COc1cc2c(cc1OC)C(=O)C(c1[nH]c3cc(OC)c(OC)cc3c1O)=N2,T/C,"dose: 50.0 mg/kg/injection, schedule: Q01DX001 (ip), vehicle: saline",98 % of control
same,T/C,"dose: 100.0 mg/kg/injection, schedule: Q01DX001 (ip), vehicle: saline",98 % of control
same,T/C,"dose: 200.0 mg/kg/injection, schedule: Q01DX001 (ip), vehicle: saline",96 % of control
same,T/C,"dose: 400.0 mg/kg/injection, schedule: Q01DX001 (ip), vehicle: saline",96 % of control
N#[N+]c1c(C(=O)O)[nH]c(=O)[nH]c1=O,T/C,"dose: 6.25 mg/kg/injection, schedule: Q01DX009 (ip), vehicle: saline",99 % of control
same,T/C,"dose: 10.0 mg/kg/injection, schedule: Q01DX001 (ip), vehicle: carboxymethylcellulose (CMC)",92 % of control
same,T/C,"dose: 12.5 mg/kg/injection, schedule: Q01DX009 (ip), vehicle: saline with Tween-80",98 % of control
same,T/C,"dose: 12.5 mg/kg/injection, schedule: Q01DX009 (ip), vehicle: saline",96 % of control
same,T/C,"dose: 12.5 mg/kg/injection, schedule: Q01DX Z (ip), vehicle: methylcellulose (MC)",94 % of control
same,T/C,"dose: 20.0 mg/kg/injection, schedule: Q01DX001 (ip), vehicle: carboxymethylcellulose (CMC)",95 % of control
same,T/C,"dose: 20.0 mg/kg/injection, schedule: Q01DX009 (ip), vehicle: carboxymethylcellulose (CMC)",96 % of control
same,T/C,"dose: 25.0 mg/kg/injection, schedule: Q01DX009 (ip), vehicle: saline with Tween-80",102 % of control
same,T/C,"dose: 25.0 mg/kg/injection, schedule: Q01DX009 (ip), vehicle: saline",98 % of control
same,T/C,"dose: 25.0 mg/kg/injection, schedule: Q01DX Z (ip), vehicle: methylcellulose (MC)",101 % of control
same,T/C,"dose: 40.0 mg/kg/injection, schedule: Q01DX001 (ip), vehicle: carboxymethylcellulose (CMC)",104 % of control
same,T/C,"dose: 40.0 mg/kg/injection, schedule: Q01DX009 (ip), vehicle: carboxymethylcellulose (CMC)",108 % of control
same,T/C,"dose: 50.0 mg/kg/injection, schedule: Q01DX009 (ip), vehicle: saline with Tween-80",95 % of control and 92 % of control
same,T/C,"dose: 50.0 mg/kg/injection, schedule: Q01DX009 (ip), vehicle: saline",99 % of control
same,T/C,"dose: 50.0 mg/kg/injection, schedule: Q01DX Z (ip), vehicle: carboxymethylcellulose (CMC)",155 % of control
same,T/C,"dose: 50.0 mg/kg/injection, schedule: Q01DX Z (ip), vehicle: methylcellulose (MC)",121 % of control
same,T/C,"dose: 80.0 mg/kg/injection, schedule: Q01DX001 (ip), vehicle: carboxymethylcellulose (CMC)",101 % of control
same,T/C,"dose: 80.0 mg/kg/injection, schedule: Q01DX009 (ip), vehicle: carboxymethylcellulose (CMC)",96 % of control
same,T/C,[1],107 % of control and 92 % of control
same,T/C,"dose: 100.0 mg/kg/injection, schedule: Q01DX009 (ip), vehicle: saline",103 % of control
same,T/C,"dose: 100.0 mg/kg/injection, schedule: Q01DX Z (ip), vehicle: methylcellulose (MC)",100 % of control
same,T/C,[2],95 % of control
same,T/C,"dose: 150.0 mg/kg/injection, schedule: Q01DX009 (ip), vehicle: saline",90 % of control
same,T/C,[3],97 % of control
same,T/C,[4],97 % of control
same,T/C,"dose: 300.0 mg/kg/injection, schedule: Q01DX009 (ip), vehicle: saline",101 % of control
same,T/C,[6],103 % of control
same,T/C,"dose: 800.0 mg/kg/injection, schedule: Q04DX003 (ip), vehicle: saline with Tween-80",97 % of control
CCOC(=O)c1oc2cc(O)cc(C)c2c1C,T/C,"dose: 50.0 mg/kg/injection, schedule: Q01DX001 (ip), vehicle: carboxymethylcellulose (CMC)",97 % of control
same,T/C,"dose: 100.0 mg/kg/injection, schedule: Q01DX001 (ip), vehicle: carboxymethylcellulose (CMC)",100 % of control
same,T/C,"dose: 200.0 mg/kg/injection, schedule: Q01DX001 (ip), vehicle: carboxymethylcellulose (CMC)",94 % of control
same,T/C,"dose: 400.0 mg/kg/injection, schedule: Q01DX001 (ip), vehicle: carboxymethylcellulose (CMC)",94 % of control
C/C(=C\COc1ccc2ccc(=O)oc2c1)C1=CC(=O)C(C)(C)O1,T/C,[1],96 % of control
same,T/C,[2],96 % of control
same,T/C,[3],94 % of control
same,T/C,[4],91 % of control
same,T/C,[5],97 % of control
same,T/C,[6],94 % of control
